SMILES strings stand for the structures.

For this assay, the target named is T1, rhCRTh2 (Homo sapiens, UniProt Q9Y5Y4).
T1 construct: expressed in transfected cells; host or cells: HEK cells (membrane preparation)
T1 sequence (Q9Y5Y4 1-395): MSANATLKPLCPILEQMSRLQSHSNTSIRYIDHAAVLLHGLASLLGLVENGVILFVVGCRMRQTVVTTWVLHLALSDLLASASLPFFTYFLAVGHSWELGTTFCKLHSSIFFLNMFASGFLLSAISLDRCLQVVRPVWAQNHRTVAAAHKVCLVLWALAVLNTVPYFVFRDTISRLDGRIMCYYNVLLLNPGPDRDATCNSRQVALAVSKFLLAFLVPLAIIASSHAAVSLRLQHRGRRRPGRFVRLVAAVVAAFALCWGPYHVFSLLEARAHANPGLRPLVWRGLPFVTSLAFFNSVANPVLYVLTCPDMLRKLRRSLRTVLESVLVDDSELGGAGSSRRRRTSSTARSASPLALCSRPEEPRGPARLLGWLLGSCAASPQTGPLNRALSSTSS
Description: Ligand binding assay: [3H]PGD2 binding to HEK cell membranes containing CRTh2 (SPA beads). The following applies: [3H]PGD2 displacement, HEK cell membranes expressing rhCRTh2/Gα16, 2 hours room temperature. As for the experimental part:
[^3H]PGD2 was purchased from Perkin Elmer Life Sciences with a specific activity of 100-210 Ci/mmol. All other chemicals were of analytical grade.
HEK cells expressing rhCRTh2/Gα16 were routinely maintained in DMEM containing 10% Foetal Bovine Serum (HyClone), 1 mg/ml geneticin, 2 mM L-glutamine and 1% non-essential amino acids. For the preparation of membranes, the adherent transfected HEK cells were grown to confluence in two layer tissue culture factories (Fisher, catalogue number TKT-170-070E). Maximal levels of receptor expression were induced by addition of […] sodium butyrate for the last 18 hours of culture. The adherent cells were washed once with phosphate buffered saline (PBS, 50 ml per cell factory) and detached by the addition of 50 ml per cell factory of ice-cold membrane homogenisation buffer [20 mM HEPES (pH 7.4), 0.1 mM dithiothreitol, 1 mM EDTA, 0.1 mM phenyl methyl sulphonyl fluoride and 100 μg/ml bacitracin]. […] The final pellet was re-suspended in 4 ml of membrane homogenisation buffer per cell factory used and the protein content determined. […]
All assays were performed in Corning clear bottomed, white 96-well NBS plates (Fisher). […] (The optimum coating concentrations were determined for each batch of membranes) The beads were pelleted by centrifugation (800×g for 7 minutes at 4° C.), washed once with assay buffer (50 mM HEPES pH 7.4 containing 5 mM magnesium chloride) and finally re-suspended in assay buffer at a bead concentration of 10 mg/ml.
Each assay contained 20 μl of 6.25 nM [^3H]PGD2, 20 μl membrane saturated SPA beads both in assay buffer and 10 μl of compound solution or 13,14-dihydro-15-keto prostaglandin D2 (DK-PGD2, for determination of non-specific binding, Cayman chemical company). […] The assay plate was incubated at room temperature for 2 hours and counted on a Wallac Microbeta liquid scintillation counter (1 minute per well).
The molecule `CCS(=O)(=O)c1ccc(Sc2cc(Cl)ccc2SCC(=O)O)c(Cl)c1` [Example 5, [(4-Chloro-2-{[2-chloro-4-(ethylsulfonyl)phenyl]thio}phenyl)thio]acetic acid] showed an IC50 of 2.51 nM.

Molecule `CCS(=O)(=O)c1ccc(Oc2cc(Cl)ccc2SCC(=O)O)c(Cl)c1` [Example 7, ({4-Chloro-2-[2-chloro-4-(ethylsulfonyl)phenoxy]phenyl}thio)acetic acid] had an IC50 of 0.794 nM.

As for `CCS(=O)(=O)Nc1ccc(Oc2cc(Cl)ccc2NCC(=O)O)c(Cl)c1` [Example 37, N-(4-Chloro-2-{2-chloro-4-[(ethylsulfonyl)amino]phenoxy}phenyl)glycine], the half-maximal inhibitory concentration (IC50) is 2.51 nM.

For the origin of these results see patent US8022248B2, “Substituted acids for the treatment of respiratory diseases” (AstraZeneca AB, priority 2004, dated 2011).
